These results are taken from PubChem BioAssay (NCI).

Some test systems named below: SN12C renal; NCI/ADR-RES ovarian; 786-0 renal; DU-145 prostate; SNB-75 CNS; SK-MEL-2 melanoma; PC-3 prostate; IGROV1 ovarian; HOP-92 NSCLC; UACC-62 melanoma; MOLT-4 leukemia; RXF 393 renal; U251 CNS; CAKI-1 renal; K-562 leukemia; SNB-19 CNS; A498 renal; HCT-15 colon.
What all share (experiment): NCI anticancer screen, dose series, 48 h

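Test compounds were applied to cells in 96-well plates for 48 hours at 5 doses. TGI: concentration producing complete growth inhibition.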

Consider `COC(=O)c1ccc(CCC2=CC(=O)C=CC2=O)cc1`, for which the TGI in the assay on SN12C renal was more than 55.9 µM; in the assay on NCI/ADR-RES ovarian, 61.2 µM; in the assay on 786-0 renal, 5.58 µM; in the assay with DU-145 prostate it was 33.8 µM; with SNB-75 CNS, 32 µM; in the assay on SK-MEL-2 melanoma, 30.4 µM. For the same compound, the TGI in the assay with PC-3 prostate is 27.7 µM; in the assay on IGROV1 ovarian, 30.2 µM; with HOP-92 NSCLC, 25.1 µM; in the assay on UACC-62 melanoma, 29.3 µM; in the assay on MOLT-4 leukemia it was 4.92 µM; in the assay on RXF 393 renal it was 25.3 µM. Further, the TGI was 24.8 µM in the assay on U251 CNS; 13.6 µM with CAKI-1 renal; 8.9 µM with K-562 leukemia; more than 56.2 µM with SNB-19 CNS; 32.9 µM in the assay on A498 renal; 23 µM in the assay on HCT-15 colon.

For the compound `C=CCN(c1cc(O)c2c(c(C)cn2S(=O)(=O)c2ccccc2)c1[N+](=O)[O-])S(C)(=O)=O`, the TGI in the assay with SN12C renal, in the assay on NCI/ADR-RES ovarian, in the assay on 786-0 renal, in the assay with DU-145 prostate, in the assay with SNB-75 CNS and in the assay on SK-MEL-2 melanoma was more than 100 µM in each case. In addition, the TGI in the assay with PC-3 prostate, in the assay with IGROV1 ovarian, in the assay with HOP-92 NSCLC, in the assay with MOLT-4 leukemia, in the assay on RXF 393 renal and in the assay on U251 CNS was more than 100 µM each time. Also, the TGI in the assay with CAKI-1 renal, in the assay with K-562 leukemia, with SNB-19 CNS, in the assay on A498 renal and in the assay on HCT-15 colon was more than 100 µM each time.

Turning to `O=c1oc2ccccc2c(-c2ccc(O)cc2)c1Oc1ccccc1`, the TGI in the assay with SN12C renal is 55.3 µM; in the assay on NCI/ADR-RES ovarian, more than 100 µM; with 786-0 renal, 66.4 µM; in the assay with DU-145 prostate, more than 63.9 µM; with SNB-75 CNS, more than 79.3 µM; in the assay on SK-MEL-2 melanoma, 18.5 µM. Moreover, the TGI was more than 96.1 µM with PC-3 prostate; 18.6 µM in the assay with IGROV1 ovarian; 26.6 µM with HOP-92 NSCLC; 18.6 µM with UACC-62 melanoma; more than 100 µM with MOLT-4 leukemia; more than 74 µM with RXF 393 renal. The TGI with U251 CNS is 24.9 µM; in the assay on CAKI-1 renal, more than 75.7 µM; in the assay with K-562 leukemia it was more than 100 µM; in the assay on SNB-19 CNS, 50.6 µM; in the assay on A498 renal it was 23.5 µM; in the assay on HCT-15 colon, more than 70 µM.

`CC1OC(OC2C(OC(=O)[C@]34CCC(C)(C)C[C@H]3C3=CC[C@@H]5[C@@]6(C)CC[C@H](OC7OC(CO)C(O)C(O)C7OC7OC(CO)C(O)C(O)C7O)C(C)(C)[C@@H]6CC[C@@]5(C)[C@]3(C)CC4)OCC(O)C2O)C(O)C(O)C1OC1OCC(O)C(O)C1O` (stereo not given in full): the TGI with SN12C renal stood at 9.27 µM; in the assay on NCI/ADR-RES ovarian, 29.1 µM; in the assay on 786-0 renal, 24 µM; in the assay with DU-145 prostate, 24.8 µM; with SNB-75 CNS, 31 µM; with SK-MEL-2 melanoma, 17.2 µM. Also, the TGI in the assay with PC-3 prostate turned out to be 25.8 µM; with IGROV1 ovarian it was 44.9 µM; in the assay with HOP-92 NSCLC, 20.4 µM; with UACC-62 melanoma, 33.1 µM; in the assay on MOLT-4 leukemia it was 46.3 µM; in the assay on RXF 393 renal, 25.4 µM. Besides, the TGI worked out at 29.2 µM with U251 CNS; 18.3 µM in the assay with CAKI-1 renal; 27.6 µM with K-562 leukemia; 28.9 µM in the assay with SNB-19 CNS; 6.06 µM in the assay with A498 renal; 32.1 µM in the assay with HCT-15 colon.

Consider `O=C1CSC(c2cc3cc(Br)ccc3nc2Cl)N1c1ccc(Cl)cc1` (stereo not given), for which the TGI is 48.7 µM in the assay on SN12C renal; 75.3 µM in the assay with NCI/ADR-RES ovarian; more than 100 µM with 786-0 renal; more than 100 µM in the assay with DU-145 prostate; more than 100 µM in the assay on SNB-75 CNS; 32.2 µM in the assay on SK-MEL-2 melanoma. Also, the TGI in the assay with PC-3 prostate was more than 100 µM; in the assay with IGROV1 ovarian, more than 100 µM; in the assay on HOP-92 NSCLC it was more than 100 µM; with UACC-62 melanoma, 22.6 µM; with MOLT-4 leukemia it was 47.9 µM; with RXF 393 renal, 60.9 µM. Also, the TGI with CAKI-1 renal is more than 100 µM; with K-562 leukemia it was more than 100 µM; in the assay on SNB-19 CNS it was more than 100 µM; in the assay with A498 renal, more than 100 µM; in the assay on HCT-15 colon, 88.8 µM.

With `NS(=O)(=O)c1c(O)c2ccccc2oc1=O`, the TGI with SN12C renal, in the assay on NCI/ADR-RES ovarian, with 786-0 renal, in the assay on DU-145 prostate, in the assay with SNB-75 CNS and in the assay with SK-MEL-2 melanoma was more than 100 µM in each case. Moreover, the TGI in the assay on PC-3 prostate, with IGROV1 ovarian, in the assay on HOP-92 NSCLC, in the assay with UACC-62 melanoma, in the assay on MOLT-4 leukemia and in the assay on RXF 393 renal was more than 100 µM throughout. In addition, the TGI in the assay on U251 CNS, in the assay with CAKI-1 renal, in the assay on K-562 leukemia, with SNB-19 CNS and in the assay on A498 renal was more than 100 µM throughout.
